ChEMBL document CHEMBL4406842, “Synthesis and in vitro biological evaluation of novel derivatives of Flexicaulin A condensation with amino acid trifluoroacetate” (Eur J Med Chem, 2019)
Activity calls are given as the source filed them. No cut-off for these calls is given here.

Experiments:
TE-1 [1] = experiment: Antiproliferative activity against human TE1 cells assessed as reduction in cell viability incubated for 72 hrs by SRB assay; type: functional, cell-based; details: for IC50: TE-1, 72 h
MCF7 = experiment: Antiproliferative activity against human MCF7 cells assessed as reduction in cell viability incubated for 72 hrs by SRB assay; type: functional, cell-based; details: MCF7, 72 h
A549 = experiment: Antiproliferative activity against human A549 cells assessed as reduction in cell viability incubated for 72 hrs by SRB assay; type: functional, cell-based; details: A549, 72 h
MGC-803 = experiment: Antiproliferative activity against human MGC803 cells assessed as reduction in cell viability incubated for 72 hrs by SRB assay; type: functional, cell-based; details: MGC-803, 72 h
[2] = Solubility of compound in water; type: physicochemical; details: buffer
TE-1 [3] = experiment: Inhibition of colony formation in human TE1 cells at 1 umol/l incubated for 24 hrs supplemented with fresh medium and measured after 7 days by crystal violet staining based assay relative to control; type: functional
TE-1 [4] = experiment: Inhibition of colony formation in human TE1 cells incubated for 24 hrs supplemented with fresh medium and measured after 7 days by crystal violet staining based assay; type: functional, cell-based
TE-1 [5] = experiment: Induction of apoptosis in human TE1 cells assessed as early apoptotic cells at 0.75 umol/L incubated for 48 hrs by annexin V-FITC and propidium iodide staining based flow cytometry (reference value: 0.9 %); type: functional
TE-1 [6] = experiment: Induction of apoptosis in human TE1 cells assessed as late apoptotic cells at 0.75 umol/L incubated for 48 hrs by annexin V-FITC and propidium iodide staining based flow cytometry (reference value: 2.8 %); type: functional
TE-1 [7] = experiment: Induction of apoptosis in human TE1 cells assessed as early apoptotic cells at 1.5 umol/L incubated for 48 hrs by annexin V-FITC and propidium iodide staining based flow cytometry (reference value: 0.9 %); type: functional
TE-1 [8] = experiment: Induction of apoptosis in human TE1 cells assessed as late apoptotic cells at 1.5 umol/L incubated for 48 hrs by annexin V-FITC and propidium iodide staining based flow cytometry (reference value: 2.8 %); type: functional
TE-1 [9] = experiment: Induction of apoptosis in human TE1 cells assessed as early apoptotic cells at 3 umol/L incubated for 48 hrs by annexin V-FITC and propidium iodide staining based flow cytometry (reference value: 0.9 %); type: functional
TE-1 [10] = experiment: Induction of apoptosis in human TE1 cells assessed as late apoptotic cells at 3 umol/L incubated for 48 hrs by annexin V-FITC and propidium iodide staining based flow cytometry (reference value: 2.8 %); type: functional
TE-1 [11] = experiment: Induction of ROS production in human TE1 cells at 0.75 umol/L incubated for 48 hrs by DCFH-DA staining based flow cytometry (reference value: 2.4 %); type: functional
TE-1 [12] = experiment: Induction of ROS production in human TE1 cells at 1.5 umol/L incubated for 48 hrs by DCFH-DA staining based flow cytometry (reference value: 2.4 %); type: functional
TE-1 [13] = experiment: Induction of ROS production in human TE1 cells at 3 umol/L incubated for 48 hrs by DCFH-DA staining based flow cytometry (reference value: 2.4 %); type: functional
Homo sapiens [14] = species: Homo sapiens; experiment: Activation of SAPK/JNK signalling pathway in human TE1 cells assessed as increase in ASK1 phosphorylation at 1.5 and 3 umol/L incubated for 48 hrs by Western blot analysis; type: cell-based
Homo sapiens [15] = species: Homo sapiens; experiment: Activation of SAPK/JNK signalling pathway in human TE1 cells assessed as increase in MKK4 phosphorylation at 0.75 to 3 umol/L incubated for 48 hrs by Western blot analysis; type: cell-based
Homo sapiens [16] = species: Homo sapiens; experiment: Activation of SAPK/JNK signalling pathway in human TE1 cells assessed as increase in JNK phosphorylation at 0.75 to 3 umol/L incubated for 48 hrs by Western blot analysis; type: cell-based
TE-1 [17] = experiment: Induction of apoptosis in human TE1 cells assessed as increase in Bax expression at 0.75 to 3 umol/L incubated for 48 hrs by Western blot analysis; type: functional, cell-based
TE-1 [18] = experiment: Induction of apoptosis in human TE1 cells assessed as decrease in Bcl2 expression at 0.75 to 3 umol/L incubated for 48 hrs by Western blot analysis; type: functional, cell-based
TE-1 [19] = experiment: Induction of apoptosis in human TE1 cells assessed as increase in Bax-Bcl2 ratio at 0.75 to 3 umol/L incubated for 48 hrs by Western blot analysis; type: functional, cell-based
TE-1 [20] = experiment: Induction of apoptosis in human TE1 cells assessed as increase in cleaved caspase-3 level at 0.75 to 3 umol/L incubated for 48 hrs by Western blot analysis; type: functional, cell-based
TE-1 [21] = experiment: Induction of apoptosis in human TE1 cells assessed as increase in cleaved caspase-9 level at 0.75 to 3 umol/L incubated for 48 hrs by Western blot analysis; type: functional, cell-based
TE-1 [22] = experiment: Induction of apoptosis in human TE1 cells assessed as increase in cleaved PARP level at 0.75 to 3 umol/L incubated for 48 hrs by Western blot analysis; type: functional, cell-based
GES1 = experiment: Cytotoxicity against human GES-1 cells assessed as reduction in cell viability by SRB assay; type: cell-based
TE-1 [23] = experiment: Induction of apoptosis in human TE1 cells assessed as increase in Bad protein level at 0.75 to 3 umol/L incubated for 48 hrs by Western blot analysis; type: functional, cell-based
TE-1 [24] = experiment: Induction of apoptosis in human TE1 cells assessed as increase in Bak protein level at 0.75 to 3 umol/L incubated for 48 hrs by Western blot analysis; type: functional, cell-based
TE-1 [25] = experiment: Induction of apoptosis in human TE1 cells assessed as increase in NOXA protein level at 0.75 to 3 umol/L incubated for 48 hrs by Western blot analysis; type: functional, cell-based

## C=C1C(=O)[C@]23[C@H](OC(=O)[C@@H](N)c4ccccc4)[C@H]1C[C@H](O)[C@H]2[C@]1(COC(C)=O)CCCC(C)(C)[C@H]1C[C@H]3OC.O=C(O)C(F)(F)F
TE-1 [1]
  IC50: 920 nM
MCF7
  IC50: 1110 nM
A549
  IC50: 1680 nM
MGC-803
  IC50: 1660 nM
[2]
  solubility: Soluble

## C=C1C(=O)[C@]23[C@H](OC(=O)[C@H](Cc4ccccc4)NC)[C@H]1C[C@H](O)[C@H]2[C@]1(COC(C)=O)CCCC(C)(C)[C@H]1C[C@H]3OC.O=C(O)C(F)(F)F
TE-1 [1]
  inhibition: Dose-dependent effect
  IC50: 750 nM
MCF7
  IC50: 890 nM
A549
  IC50: 1200 nM
MGC-803
  IC50: 1500 nM
TE-1 [3]
  inhibition at 1 µM: 100%
TE-1 [4]
  inhibition: Dose-dependent effect
TE-1 [5]
  Activity: 2.8%
TE-1 [6]
  Activity: 5.1%
TE-1 [7]
  Activity: 5%
TE-1 [8]
  Activity: 12%
TE-1 [9]
  Activity: 8.7%
TE-1 [10]
  Activity: 30.7%
TE-1 [11]
  Activity: 10.4%
TE-1 [12]
  Activity: 36.4%
TE-1 [13]
  Activity: 73.1%
Homo sapiens [14]
  Activity: Active
Homo sapiens [15]
  Activity: Active
Homo sapiens [16]
  Activity: Active
TE-1 [17]
  Activity: Active
TE-1 [18]
  Activity: Active
TE-1 [19]
  Activity: Active
TE-1 [20]
  Activity: Active
TE-1 [21]
  Activity: Active
TE-1 [22]
  Activity: Active
GES1
  Activity: Tde and Dose-dependent effect
[2]
  solubility: Soluble
TE-1 [23]
  Activity: Active
TE-1 [24]
  Activity: Active
TE-1 [25]
  Activity: Active

## C=C1C(=O)[C@]23[C@H](OC(=O)[C@H](CCCNC(=O)OC(C)(C)C)NC(=O)OC(C)(C)C)[C@H]1C[C@H](O)[C@H]2[C@]1(COC(C)=O)CCCC(C)(C)[C@H]1C[C@H]3OC
TE-1 [1]
  IC50: 1390 nM
MCF7
  IC50: 2150 nM
A549
  IC50: 2990 nM
MGC-803
  IC50: 3330 nM
[2]
  solubility: Insoluble

## C=C1C(=O)[C@]23[C@H](OC(=O)[C@H]4CCCN(C(=O)OC(C)(C)C)C4)[C@H]1C[C@H](O)[C@H]2[C@]1(COC(C)=O)CCCC(C)(C)[C@H]1C[C@H]3OC
TE-1 [1]
  IC50: 1650 nM
MCF7
  IC50: 2580 nM
A549
  IC50: 3490 nM
MGC-803
  IC50: 2550 nM
[2]
  solubility: Insoluble

## C=C1C(=O)[C@]23[C@H](OC(=O)[C@H](CCc4ccccc4)NC(=O)OC(C)(C)C)[C@H]1C[C@H](O)[C@H]2[C@]1(COC(C)=O)CCCC(C)(C)[C@H]1C[C@H]3OC
TE-1 [1]
  IC50: 1630 nM
MCF7
  IC50: 2180 nM
A549
  IC50: 3720 nM
MGC-803
  IC50: 1730 nM
[2]
  solubility: Insoluble

## C=C1C(=O)[C@]23[C@H](OC(=O)[C@@H](N)CCCCN)[C@H]1C[C@H](O)[C@H]2[C@]1(COC(C)=O)CCCC(C)(C)[C@H]1C[C@H]3OC.O=C(O)C(F)(F)F.O=C(O)C(F)(F)F
TE-1 [1]
  IC50: 14300 nM
MCF7
  IC50: 22200 nM
A549
  IC50: 5860 nM
MGC-803
  IC50: 9520 nM
[2]
  solubility: Soluble

## C=C1C(=O)[C@]23[C@H](OC(=O)CN(C)C(=O)OC(C)(C)C)[C@H]1C[C@H](O)[C@H]2[C@]1(COC(C)=O)CCCC(C)(C)[C@H]1C[C@H]3OC
TE-1 [1]
  IC50: 1450 nM
MCF7
  IC50: 3080 nM
A549
  IC50: 5460 nM
MGC-803
  IC50: 3940 nM
[2]
  solubility: Insoluble

## C=C1C(=O)[C@]23[C@H](OC(=O)CCCCNC(=O)OC(C)(C)C)[C@H]1C[C@H](O)[C@H]2[C@]1(COC(C)=O)CCCC(C)(C)[C@H]1C[C@H]3OC
TE-1 [1]
  IC50: 1190 nM
MCF7
  IC50: 1560 nM
A549
  IC50: 5640 nM
MGC-803
  IC50: 3060 nM
[2]
  solubility: Insoluble

## C=C1C(=O)[C@]23[C@H](OC(=O)[C@H](Cc4ccccc4)N(C)C(=O)OC(C)(C)C)[C@H]1C[C@H](O)[C@H]2[C@]1(COC(C)=O)CCCC(C)(C)[C@H]1C[C@H]3OC
TE-1 [1]
  IC50: 1160 nM
MCF7
  IC50: 2460 nM
A549
  IC50: 3150 nM
MGC-803
  IC50: 1510 nM
[2]
  solubility: Insoluble

## C=C1C(=O)[C@]23[C@H](OC(=O)[C@H](CCC)NC(=O)OC(C)(C)C)[C@H]1C[C@H](O)[C@H]2[C@]1(COC(C)=O)CCCC(C)(C)[C@H]1C[C@H]3OC
TE-1 [1]
  IC50: 1820 nM
MCF7
  IC50: 2590 nM
A549
  IC50: 6810 nM
MGC-803
  IC50: 4930 nM
[2]
  solubility: Insoluble

## C=C1C(=O)[C@]23[C@H](OC(=O)[C@@H](N)C(C)C)[C@H]1C[C@H](O)[C@H]2[C@]1(COC(C)=O)CCCC(C)(C)[C@H]1C[C@H]3OC.O=C(O)C(F)(F)F
TE-1 [1]
  IC50: 1970 nM
MCF7
  IC50: 1270 nM
A549
  IC50: 2670 nM
MGC-803
  IC50: 990 nM
[2]
  solubility: Soluble

## C=C1C(=O)[C@]23[C@H](OC(=O)[C@@H](N)CCC)[C@H]1C[C@H](O)[C@H]2[C@]1(COC(C)=O)CCCC(C)(C)[C@H]1C[C@H]3OC.O=C(O)C(F)(F)F
TE-1 [1]
  IC50: 1720 nM
MCF7
  IC50: 4570 nM
A549
  IC50: 1640 nM
MGC-803
  IC50: 4940 nM
[2]
  solubility: Soluble

## C=C1C(=O)[C@]23[C@H](OC(=O)[C@H]4CCCNC4)[C@H]1C[C@H](O)[C@H]2[C@]1(COC(C)=O)CCCC(C)(C)[C@H]1C[C@H]3OC.O=C(O)C(F)(F)F
TE-1 [1]
  IC50: 6550 nM
MCF7
  IC50: 11500 nM
A549
  IC50: 17200 nM
MGC-803
  IC50: 6220 nM
[2]
  solubility: Soluble

## C=C1C(=O)[C@]23[C@H](OC(=O)[C@H](Cc4ccccc4)NC(=O)OC(C)(C)C)[C@H]1C[C@H](O)[C@H]2[C@]1(COC(C)=O)CCCC(C)(C)[C@H]1C[C@H]3OC
TE-1 [1]
  IC50: 2440 nM
MCF7
  IC50: 3060 nM
A549
  IC50: 6220 nM
MGC-803
  IC50: 3220 nM
[2]
  solubility: Insoluble

## C=C1C(=O)[C@]23[C@H](OC(=O)CCCCCNC(=O)OC(C)(C)C)[C@H]1C[C@H](O)[C@H]2[C@]1(COC(C)=O)CCCC(C)(C)[C@H]1C[C@H]3OC
TE-1 [1]
  IC50: 1720 nM
MCF7
  IC50: 2840 nM
A549
  IC50: 5410 nM
MGC-803
  IC50: 3500 nM
[2]
  solubility: Insoluble
